Target: T1, PDK-1 (Homo sapiens, UniProt O15530)
T1 sequence (O15530 1-556): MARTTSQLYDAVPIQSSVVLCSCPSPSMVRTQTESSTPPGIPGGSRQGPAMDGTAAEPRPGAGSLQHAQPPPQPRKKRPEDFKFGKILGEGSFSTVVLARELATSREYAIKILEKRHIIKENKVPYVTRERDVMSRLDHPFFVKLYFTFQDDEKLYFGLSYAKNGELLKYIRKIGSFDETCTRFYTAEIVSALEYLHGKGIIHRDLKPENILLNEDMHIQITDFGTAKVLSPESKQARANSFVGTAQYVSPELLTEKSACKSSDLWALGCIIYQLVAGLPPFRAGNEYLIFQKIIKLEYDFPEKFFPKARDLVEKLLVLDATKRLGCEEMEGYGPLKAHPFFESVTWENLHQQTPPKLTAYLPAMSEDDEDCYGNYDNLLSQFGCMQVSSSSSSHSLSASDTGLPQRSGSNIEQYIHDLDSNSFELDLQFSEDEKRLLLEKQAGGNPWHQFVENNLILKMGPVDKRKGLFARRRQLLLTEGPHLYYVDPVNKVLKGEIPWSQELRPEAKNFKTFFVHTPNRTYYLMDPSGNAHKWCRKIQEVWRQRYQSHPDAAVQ
Test: In vitro PDK-1 inhibition ELISA assay (phosphorylation of SGK1 on Threonine 256)
Assay type: biochemical
Conditions: PDK-1 phosphorylates 6xHIS tagged SGK1, 17 minutes reaction, chemiluminescent detection
Description: The ability of illustrative Dibenzonaphthyridine Derivatives to inhibit PDK-1 in vitro can be determined using the ELISA assay as decribed in Kobayashi et al., Biochem. J. 339:319-328 (1999) and Park et al., EMBO J. 18:3024-3033 (1999).
In this in vitro assay, PDK-1 kinase phosphorylates SGK1 on Threonine 256. After 17 minutes, the reaction is quenched via the addition of urea. The 6×HIS tagged SGK1 is then bound to 96 well Ni-NTA HisSorb plates and the phosphorylated SGK1 is detected using rabbit derived anti-phospho SGK antibody as the primary antibody and HRP coupled anti-rabbit antibody as the secondary antibody. HRP is then detected using a Chemiluminescent Substrate.

| Compound | IC50 [nM] |
| --- | --- |
| COc1cc2c(cc1N(C)CCN(C)C)ncc1c(N)nc3c(C)c(N)ccc3c12 [Ib-6, N^10-[2-(dimethylamino)ethyl]-11-methoxy-N^10,4-dimethyldibenzo[c,f]-2,7-naphthyridine-3,6,10-triamine] | 1170 |
| COc1cc2c(cc1NCCCN1CCN(C)CC1)ncc1c(N)nc3c(C)c(N)ccc3c12 [Ib-7, 11-methoxy-4-methyl-N^10-[3-(4-methylpiperazin-1-yl)propyl]dibenzo[c,f]-2,7-naphthyridine-3,6,10-triamine] | 555 |
| COc1cc2c(cc1NCCCN1CCOCC1)ncc1c(N)nc3c(C)c(N)ccc3c12 [Ib-8, 11-methoxy-4-methyl-N^10-(3-morpholin-4-ylpropyl)dibenzo[c,f]-2,7-naphthyridine-3,6,10-triamine] | 290 |
| COc1cc2c(cc1NCCN1CCOCC1)ncc1c(N)nc3c(C)c(N)ccc3c12 [Ib-9, 11-methoxy-4-methyl-N^10-(2-morpholin-4-ylethyl)dibenzo[c,f]-2,7-naphthyridine-3,6,10-triamine] | 296 |
| COc1cc2c(cc1OCCN1CCOCC1)ncc1c(N)nc3c(C)c(N)ccc3c12 [Ib-10, 11-methoxy-4-methyl-10-(2-morpholin-4-ylethoxy)dibenzo[c,f]-2,7-naphthyridine-3,6-diamine] | 57.5 |
| COc1cc2c(cc1OCCCN1CCOCC1)ncc1c(N)nc3c(C)c(N)ccc3c12 [Ib-11, 11-methoxy-4-methyl-10-(3-morpholin-4-ylpropoxy)dibenzo[c,f]-2,7-naphthyridine-3,6-diamine] | 121 |
| COc1cc2c(cc1NCCCN1CCCC1)ncc1c(N)nc3c(C)c(N)ccc3c12 [Ib-12, 11-methoxy-4-methyl-N^10-(3-pyrrolidin-1-ylpropyl)dibenzo[c,f]-2,7-naphthyridine-3,6,10-triamine] | 846 |
| COc1cc2c(cc1NCCN1CCCC1)ncc1c(N)nc3c(C)c(N)ccc3c12 [Ib-13, 11-methoxy-4-methyl-N^10-(2-pyrrolidin-1-ylethyl)dibenzo[c,f]-2,7-naphthyridine-3,6,10-triamine] | 3710 |
| COc1cc2c(cc1NCCN(C)C)ncc1c(N)nc3c(C)c(N)ccc3c12 [Ib-14, N^10-[2-(dimethylamino)ethyl]-11-methoxy-4-methyldibenzo[c,f]-2,7-naphthyridine-3,6,10-triamine] | 2410 |
| COc1cc2c(cc1NCCCN(C)C)ncc1c(N)nc3c(C)c(N)ccc3c12 [Ib-15, N^10-[3-(dimethylamino)propyl]-11-methoxy-4-methyldibenzo[c,f]-2,7-naphthyridine-3,6,10-triamine] | 972 |

Results, then the compound that gave them:

| IC50 [nM] | Compound |
| --- | --- |
| 23800 | COc1cc2ncc3c(OC)nc4c(C)c(OC)ccc4c3c2cc1OC [Compound I-1, 2,3,7,10-tetramethoxy-9-methyldibenzo[c,f]-2,7-naphthyridine] |
| 2500 | COc1cc2ncc3cnc4c(C)c(N)ccc4c3c2cc1OC [Compound I-3, 10,11-dimethoxy-4-methyldibenzo[c,f]-2,7-naphthyridin-3-amine] |
| 2400 | COc1cc2ncc3c(N)nc4ccccc4c3c2cc1OC [Ib-1, 10,11-dimethoxydibenzo[c,f]-2,7-naphthyridin-6-amine] |
| 93 | COc1cc2ncc3c(N)nc4c(C)c(N)ccc4c3c2cc1OC [Ib-2, 10,11-dimethoxy-4-methyldibenzo[c,f]-2,7-naphthyridine-3,6-diamine] |
| 273 | CCOc1cc2ncc3c(N)nc4c(C)c(N)ccc4c3c2cc1OCC [Ib-3, 10,11-diethoxy-4-methyldibenzo[c,f]-2,7-naphthyridine-3,6-diamine] |
| 388 | COc1cc2c(cc1F)ncc1c(N)nc3c(C)c(N)ccc3c12 [Ib-4, 10-fluoro-11-methoxy-4-methyldibenzo[c,f]-2,7-naphthyridine-3,6-diamine] |
| 1010 | COc1cc2c(cc1N(C)CCCN(C)C)ncc1c(N)nc3c(C)c(N)ccc3c12 [Ib-5, N^10-[3-(dimethylamino)propyl]-11-methoxy-N^10,4-dimethyldibenzo[c,f]-2,7-naphthyridine-3,6,10-triamine] |

From patent US7388016B2, “Dibenzonaphthyridine derivatives and methods of use thereof” (Wyeth, priority 2005, dated 2008)
